Experimental data taken from patent US20170157010A1, “METHODS AND COMPOSITIONS FOR TREATMENT OF DISORDERS ASSOCIATED WITH DAMAGE INDUCED BY FREE RADICALS” (Glycadia, Inc., priority 2015, published 2017).
Values joined by “and” are separate entries in the source; they are usually repeats but may differ in a detail not shown here. Equal values may be shown once.

Assays:
[1] = ABTS radical cation free radical scavenging (bleaching of absorbance at 734 nm); assay type: biochemical; settings: ABTSY+ 450 micromolar, pH 7.4
Description: A radical cation of 2,2′-azino-bis(3-ethylbenzthiazoline-6-sulfonic acid) diammonium salt (ABTS) was generated by oxidation with manganese dioxide, forming the blue-green radical cation ABTSY+ with spectrophotometric absorbance at 734 nanommeters (nm). The reaction was initiated by the addition of 23CPPA (5-40 micromolar) to ABTSY+ (450 micromolar) in phosphate buffer (75 millimolar, pH 7.4) and decay of the blue-green radical cation absorbance was monitored over time. Absorbance profiles were obtained with incubation in phosphate buffer (75 millimolar, pH 7.4) as control. The reaction of anti-oxidants with stable free radicals such as ABTSY+ that is generated from ABTS measures their free radical scavenging capacities.

[2] = Ultraviolet absorption spectrum; assay type: physicochemical
Description: Ultraviolet (UV) absorption peaks of 2-(3-chlorophenylamino)phenylacetic acid at 211 and 283 nm, encompassing wavelength range of medium wave UVB (315-280 nm) and short wave UVC (280-190 nm).

[3] = Brain penetration following oral administration in rats (HPLC/MS/MS); assay type: in vivo; settings: rat; sodium salt by gavage 15 and 60 mg/kg
Description: Rat hemi brains were obtained 1,4 and 6 hours after administration by gavage of the sodium salt of 23CPPA at doses of 15 and 60 mg/kg and were mixed with two equivalents of water and homogenized. The resulting homogenate was extracted with acetonitrile containing internal standard and concentrations of the compound were analyzed by high pressure liquid chromatography/two stage mass spectrometry (HPLC/MS/MS). Plasma samples also were collected from the same rats at these time points for measurement of plasma concentrations of the compound.

Ultraviolet (UV) absorption peaks [2]: 211 nm and 283 nm
Absorbance ([2]; wavelength 190 nm): 0.5
Absorbance ([2]; wavelength 195 nm): 0.75
Absorbance ([2]; wavelength 197 nm): 1.0
Absorbance ([2]; wavelength 198 nm): 1.25
Absorbance ([2]; wavelength 199 nm): 1.5
Absorbance ([2]; wavelength 205 nm): 2.0
Absorbance ([2]; wavelength 208 nm): 2.1
Absorbance ([2]; wavelength 211 nm): 2.2
Absorbance ([2]; wavelength 212 nm): 2.0
Absorbance ([2]; wavelength 220 nm): 1.25
Absorbance ([2]; wavelength 222 nm): 1.0
Absorbance ([2]; wavelength 232 nm): 0.5
Absorbance ([2]; wavelength 235 nm): 0.45
Absorbance ([2]; wavelength 239 nm): 0.43
Absorbance ([2]; wavelength 243 nm): 0.43
Absorbance ([2]; wavelength 249 nm): 0.43
Absorbance ([2]; wavelength 252 nm): 0.43
Absorbance ([2]; wavelength 256 nm): 0.43
Absorbance ([2]; wavelength 260 nm): 0.5
Absorbance ([2]; wavelength 272 nm): 0.75
Absorbance ([2]; wavelength 283 nm): 0.93
Absorbance ([2]; wavelength 291 nm): 0.75
Absorbance ([2]; wavelength 300 nm): 0.5
Absorbance ([2]; wavelength 308 nm): 0.25
Absorbance ([2]; wavelength 325 nm): 0
Dose dependence of brain concentrations [3]: dose proportional
SMILES: O=C(O)Cc1ccccc1Nc1cccc(Cl)c1 [23CPPA, 2-[(3-chlorophenyl)amino] phenylacetic acid]
Decay (% of starting absorbance) ([1]; 23CPPA 5 micromolar, 1 minute): 74 % of starting absorbance
Decay (% of starting absorbance) ([1]; 23CPPA 5 micromolar, 2 minutes): 72 % of starting absorbance
Decay (% of starting absorbance) ([1]; 23CPPA 5 micromolar, 3 minutes): 69 % of starting absorbance
Decay (% of starting absorbance) ([1]; 23CPPA 5 micromolar, 4 minutes): 67 % of starting absorbance
Decay (% of starting absorbance) ([1]; 23CPPA 5 micromolar, 5 minutes): 65 % of starting absorbance
Decay (% of starting absorbance) ([1]; 23CPPA 5 micromolar, 6 minutes): 63 % of starting absorbance
Decay (% of starting absorbance) ([1]; 23CPPA 5 micromolar, 7 minutes): 61 % of starting absorbance
Decay (% of starting absorbance) ([1]; 23CPPA 5 micromolar, 8 minutes): 60 % of starting absorbance
Decay (% of starting absorbance) ([1]; 23CPPA 5 micromolar, 9 minutes): 58 % of starting absorbance
Decay (% of starting absorbance) ([1]; 23CPPA 5 micromolar, 10 minutes): 56 % of starting absorbance
Decay (% of starting absorbance) ([1]; 23CPPA 5 micromolar, 11 minutes): 55 % of starting absorbance
Decay (% of starting absorbance) ([1]; 23CPPA 5 micromolar, 12 minutes): 53 % of starting absorbance
Decay (% of starting absorbance) ([1]; 23CPPA 5 micromolar, 13 minutes): 52 % of starting absorbance
Decay (% of starting absorbance) ([1]; 23CPPA 5 micromolar, 14 minutes): 51 % of starting absorbance
Decay (% of starting absorbance) ([1]; 23CPPA 5 micromolar, 15 minutes): 49 % of starting absorbance
Decay (% of starting absorbance) ([1]; 23CPPA 10 micromolar, 1 minute): 57 % of starting absorbance
Decay (% of starting absorbance) ([1]; 23CPPA 10 micromolar, 2 minutes): 56 % of starting absorbance
Decay (% of starting absorbance) ([1]; 23CPPA 10 micromolar, 3 minutes): 53 % of starting absorbance
Decay (% of starting absorbance) ([1]; 23CPPA 10 micromolar, 4 minutes): 52 % of starting absorbance
Decay (% of starting absorbance) ([1]; 23CPPA 10 micromolar, 5 minutes): 51 % of starting absorbance
Decay (% of starting absorbance) ([1]; 23CPPA 10 micromolar, 6 minutes): 50 % of starting absorbance
Decay (% of starting absorbance) ([1]; 23CPPA 10 micromolar, 7 minutes): 48 % of starting absorbance
Decay (% of starting absorbance) ([1]; 23CPPA 10 micromolar, 8 minutes): 47 % of starting absorbance
Decay (% of starting absorbance) ([1]; 23CPPA 10 micromolar, 9 minutes): 46 % of starting absorbance
Decay (% of starting absorbance) ([1]; 23CPPA 10 micromolar, 10 minutes): 44 % of starting absorbance
Decay (% of starting absorbance) ([1]; 23CPPA 10 micromolar, 11 minutes): 44 % of starting absorbance
Decay (% of starting absorbance) ([1]; 23CPPA 10 micromolar, 12 minutes): 43 % of starting absorbance
Decay (% of starting absorbance) ([1]; 23CPPA 10 micromolar, 13 minutes): 43 % of starting absorbance
Decay (% of starting absorbance) ([1]; 23CPPA 10 micromolar, 14 minutes): 42 % of starting absorbance
Decay (% of starting absorbance) ([1]; 23CPPA 10 micromolar, 15 minutes): 42 % of starting absorbance
Decay (% of starting absorbance) ([1]; 23CPPA 20 micromolar, 1 minute): 37 % of starting absorbance
Decay (% of starting absorbance) ([1]; 23CPPA 20 micromolar, 2 minutes): 27 % of starting absorbance
Decay (% of starting absorbance) ([1]; 23CPPA 20 micromolar, 3 minutes): 23 % of starting absorbance
Decay (% of starting absorbance) ([1]; 23CPPA 20 micromolar, 4 minutes): 20 % of starting absorbance
Decay (% of starting absorbance) ([1]; 23CPPA 20 micromolar, 5 minutes): 17 % of starting absorbance
Decay (% of starting absorbance) ([1]; 23CPPA 20 micromolar, 6 minutes): 14 % of starting absorbance
Decay (% of starting absorbance) ([1]; 23CPPA 20 micromolar, 7 minutes): 13 % of starting absorbance
Decay (% of starting absorbance) ([1]; 23CPPA 20 micromolar, 8 minutes): 12 % of starting absorbance
Decay (% of starting absorbance) ([1]; 23CPPA 20 micromolar, 9 minutes): 12 % of starting absorbance
Decay (% of starting absorbance) ([1]; 23CPPA 20 micromolar, 10 minutes): 11 % of starting absorbance
Decay (% of starting absorbance) ([1]; 23CPPA 20 micromolar, 11 minutes): 10 % of starting absorbance
Decay (% of starting absorbance) ([1]; 23CPPA 20 micromolar, 12 minutes): 10 % of starting absorbance
Decay (% of starting absorbance) ([1]; 23CPPA 20 micromolar, 13 minutes): 9 % of starting absorbance
Decay (% of starting absorbance) ([1]; 23CPPA 20 micromolar, 14 minutes): 9 % of starting absorbance
Decay (% of starting absorbance) ([1]; 23CPPA 20 micromolar, 15 minutes): 9 % of starting absorbance
Decay (% of starting absorbance) ([1]; 23CPPA 40 micromolar, 1 minute): 20 % of starting absorbance
Decay (% of starting absorbance) ([1]; 23CPPA 40 micromolar, 2 minutes): 20 % of starting absorbance
Decay (% of starting absorbance) ([1]; 23CPPA 40 micromolar, 3 minutes): 3 % of starting absorbance
Decay (% of starting absorbance) ([1]; 23CPPA 40 micromolar, 4 minutes): 1 % of starting absorbance
Decay (% of starting absorbance) ([1]; 23CPPA 40 micromolar, 5 minutes): 0 % of starting absorbance
Decay (% of starting absorbance) ([1]; 23CPPA 40 micromolar, 6 minutes): 0 % of starting absorbance
Decay (% of starting absorbance) ([1]; 23CPPA 40 micromolar, 7 minutes): 0 % of starting absorbance
Decay (% of starting absorbance) ([1]; 23CPPA 40 micromolar, 8 minutes): 0 % of starting absorbance
Decay (% of starting absorbance) ([1]; 23CPPA 40 micromolar, 9 minutes): 0 % of starting absorbance
Decay (% of starting absorbance) ([1]; 23CPPA 40 micromolar, 10 minutes): 0 % of starting absorbance
Decay (% of starting absorbance) ([1]; 23CPPA 40 micromolar, 11 minutes): 0 % of starting absorbance
Decay (% of starting absorbance) ([1]; 23CPPA 40 micromolar, 12 minutes): 0 % of starting absorbance
Decay (% of starting absorbance) ([1]; 23CPPA 40 micromolar, 13 minutes): 0 % of starting absorbance
Decay (% of starting absorbance) ([1]; 23CPPA 40 micromolar, 14 minutes): 0 % of starting absorbance
Decay (% of starting absorbance) ([1]; 23CPPA 40 micromolar, 15 minutes): 0 % of starting absorbance
